Measurements as given in ChEMBL document CHEMBL4152185, “Therapeutic potential of songorine, a diterpenoid alkaloid of the genus Aconitum” (Eur J Med Chem, 2018).

Key:
Rattus norvegicus = assay: Antiarrhythmic activity in iv dosed aconitine-induced rat arrhythmia model administered 3 to 5 mins prior to aconitine challenge by electrocardiographic method; format: functional
[1] = Acute toxicity in iv dosed rat; format: organism-based; settings: in vivo
[2] = Antiarrhythmic index, ratio of LD50 for iv dosed rat to ED50 for antiarrhythmic activity in iv dosed aconitine-induced rat arrhythmia model; format: toxicity, organism-based; settings: in vivo, read-out: Ratio LD50/ED50

For `C=C1[C@H]2C[C@@]3([C@@H]1O)[C@@H](CC2=O)[C@@]12[C@@H](OC(=O)c4ccccc4)CC[C@@]4(C)CN(CC)[C@@H]1[C@@H]3C[C@H]42`, the ED50 (Rattus norvegicus) was 0.38 mg/kg, the LD50 [1] was 41 mg/kg and the selectivity ratio [2] was 108.

`C=C1[C@H]2C[C@@]3([C@@H]1O)[C@@H](CC2=O)[C@@]12[C@@H](OC(C)=O)CC[C@@]4(C)CN(CC)[C@@H]1[C@@H]3C[C@H]42` showed an ED50 (Rattus norvegicus) of 15 mg/kg, an LD50 [1] of 150 mg/kg and a selectivity ratio [2] of 10.

In the case of `C=C1[C@H]2C[C@@]3([C@@H]1OC(C)=O)[C@@H](CC2=O)[C@@]12[C@@H](OC(C)=O)CC[C@@]4(C)CN(CC)[C@@H]1[C@@H]3C[C@H]42`, the ED50 (Rattus norvegicus) is reported as 18 mg/kg, the LD50 [1] is reported as 131 mg/kg and the selectivity ratio [2] is reported as 7.3.

`C=C1[C@H]2C[C@@]3([C@@H]1O)[C@@H](CC2=O)[C@]12[C@@H]4C[C@H]3[C@H]1N(CC)C[C@]4(C)CC[C@@H]2O` [SONGORINE] gave an ED50 (Rattus norvegicus) of 7.3 mg/kg, an LD50 [1] of 142 mg/kg and a selectivity ratio [2] of 19.
